Numbered stars: 1 amine (or outer) side, 2 acyl side, 3 side chain; on linkers, the order of the positions; unused ones are H or OH. Square brackets hold non-standard residues; d marks the D form. Peptide text beside a SMILES is read from it. * marks the point of attachment. X2 = CC1(C)C(=O)N(c2ccc(C#N)c(C(F)(F)F)c2)C(=S)N1c1ccc(C(=O)*)c(F)c1; X1 = O=C1CCC(N2C(=O)c3cccc(N(CC(=O)[*:2])[*:1])c3C2=O)C(=O)N1; EuK = O=C(O)CC[C@H](NC(=O)N[C@@H](CCCCN*)C(=O)O)C(=O)O; 2Nal = N[C@@H](Cc1ccc2ccccc2c1)C(=O)O
Tests used:
[1] = tested on: RWPE-1 (PSMA^low) and 22Rv1 (PSMA^high) cells; experiment: Uptake in RWPE-1 versus 22Rv1 cells (flow cytometry, IF); format: cell-based
Protocol: (§1) Fig. 2 a Representative 22Rv1 cell CLSM images of FITC-labeled Psa-AR (40 μM) assembly (green channel) interacting with PSMA (red channel) and its colocalization analysis (1–1’). Scale bar: 10 μm. b Representative SEM images of 22Rv1 cells after treatment with Psa-AR (40 μM) for 4 h. Scale bar: 1 μm. Scale bar: 200 nm (zoom in). c Representative 22Rv1 cell CLSM images of FITC-labeled P-AR (40 μM) (green channel) interacting with PSMA (red channel). Scale bar: 10 μm. d Representative SEM images of 22Rv1 cells after treatment with P-AR (40 μM) for 4 h. Scale bar: 1 μm. Scale bar: 200 nm (zoom in). e The uptake of either Psa-AR or P-AR by 22Rv1 (PSMA^high) and RWPE-1 (PSMA^low) cells was examined by flow cytometry, followed by comprehensive quantitative analysis (f), n = 3 per group. g Representative 22Rv1 cell CLSM images of FITC-labeled Psa-AR assembly (green channel) with lysosomes (red channel) and colocalization analysis. Scale bar: 10 μm. h Representative CLSM images of 22Rv1 cells after incubation with FITC-labeled Psa-AR (green channel) for 12 h. […]
(§2) A total of 1 × 10^5 22Rv1 cells per well were seeded in 6-well plates in DMEM containing 10% fetal bovine serum and 1% penicillin‒streptomycin. […] Then, the cells were collected to evaluate fluorescence expression via flow cytometry. […] The cells were then collected and analyzed for fluorescence expression via flow cytometry.

[2] = target: PSMA protein (Homo sapiens, UniProt Q04609); experiment: MST binding affinity, Psa-AR and PSMA protein; details: RED-NHS-labeled PSMA 400 nM, PBS-T (0.05% Tween 20), 22 °C, n = 3, read-out: Kd, binding affinity between Psa-AR and PSMA
Chain of PSMA protein (Q04609 whole entry): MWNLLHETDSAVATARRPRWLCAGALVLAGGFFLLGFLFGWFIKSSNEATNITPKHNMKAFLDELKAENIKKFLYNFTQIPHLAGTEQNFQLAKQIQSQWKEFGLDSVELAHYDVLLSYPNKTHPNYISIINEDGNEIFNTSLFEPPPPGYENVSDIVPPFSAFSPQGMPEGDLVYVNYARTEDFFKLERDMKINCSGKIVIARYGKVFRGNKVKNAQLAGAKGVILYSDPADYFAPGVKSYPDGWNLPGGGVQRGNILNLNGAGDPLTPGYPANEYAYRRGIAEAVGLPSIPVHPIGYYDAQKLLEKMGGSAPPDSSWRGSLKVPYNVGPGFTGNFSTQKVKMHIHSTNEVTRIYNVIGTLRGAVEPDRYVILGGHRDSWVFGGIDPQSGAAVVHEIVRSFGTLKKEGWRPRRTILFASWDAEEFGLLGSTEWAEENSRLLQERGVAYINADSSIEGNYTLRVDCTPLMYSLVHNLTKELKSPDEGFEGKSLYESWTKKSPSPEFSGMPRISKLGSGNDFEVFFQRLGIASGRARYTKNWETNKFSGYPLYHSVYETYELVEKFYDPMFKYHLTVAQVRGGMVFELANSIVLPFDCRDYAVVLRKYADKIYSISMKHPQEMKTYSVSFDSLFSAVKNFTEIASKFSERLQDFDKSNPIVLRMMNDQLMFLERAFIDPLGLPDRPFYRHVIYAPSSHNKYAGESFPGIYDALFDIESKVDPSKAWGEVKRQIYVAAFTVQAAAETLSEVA
Protocol: Fig. 1 Protein-induced self-assembly behaviors of Psa-AR in vitro. a Six tissue samples from patients with prostate tumors (1–6) and six from patients with normal prostates (1’–6’) were obtained clinically. The expression of CRBN in these samples was analyzed by immunohistochemistry (IHC).
MST (NanoTemper Technologies GmbH, Munich, Germany) was utilized to evaluate the binding affinity between Psa-AR and RED-NHS-labeled PSMA, AR, or CRBN proteins. The PSMA, AR, and CRBN proteins were labeled with the Protein Labeling Kit RED-NHS 2nd Generation (Amine Reactive). RED-PSMA, RED-AR, and RED-CRBN proteins were diluted to a final concentration of 400 nM with PBS-T buffer (0.05% Tween 20), where the fluorescence signals satisfied the typical detection limit of the Monolith NT.115 instrument (NanoTemper Technologies). The binding affinity between Psa-AR and the RED-NHS-labeled AR protein was assessed. […] Then, 10 µL of RED-CRBN was added to each sample to achieve a final concentration of 400 nM. After incubation for 20 min, the samples were loaded into standard/premium-treated capillaries. All the experiments were performed at 22 °C. The data were analyzed by NanoTemper analysis software.

[3] = Cellular cytotoxicity, LNCaP; format: cell-based; details: human, LNCaP cells
[4] = tested on: 22Rv1 (PSMA^high) cells; experiment: Flow cytometry uptake of FITC-labeled conjugates in 22Rv1 cells; format: cell-based; details: 40 µM, 24 h, n = 3
Protocol: as §1, §2

[5] = tested on: 22Rv1 cells; format: cell-based; details: n = 6, read-out: IC50, cell viability
[6] = tested on: AR-V7; experiment: Western blot AR-V7 degradation in 22Rv1 cells; format: cell-based; details: 22Rv1, 20 μM, 48 h
Protocol: (§3) All uncropped blots are presented in Supplementary Fig. 26. j, k Representative 22Rv1 cell CLSM images of the degradation of AR after incubation with FITC-labeled Psa-AR for 12 h and quantitative analysis, n = 3 per group. Scale bar: 10 μm. l, m Representative 22Rv1 cell CLSM images of the degradation of HSP90 after incubation with FITC-labeled Psa-AR for 12 h and quantitative analysis, n = 3 per group. Scale bar: 10 μm. n AR-V7 expression in 22Rv1 cells after treatment with PBS, P-AR (20 μM), Psa-AR (20 μM) or Psa-AR (20 μM) combined with MG132 (2 μM) for 48 h, as determined by western blotting. β-Actin was used as an internal reference. o Results of apoptosis in 22Rv1 cells treated with PBS, P-AR (20 μM), or Psa-AR (20 μM) for 48 h, as detected by flow cytometry.
The pretreated cells were resuspended in lysis buffer containing 50 mM Tris-HCl (pH 8.0), 150 mM NaCl, 1% (v/v) Triton X-100, and protease inhibitors. The protein concentration was determined via a BCA kit (Applygen). Each sample ([…]) was subjected to SDS‒PAGE and then transferred to a PVDF membrane. The blots were blocked in 5% (wt/v) blocking buffer. After washing three times with TBST buffer (10 mM TBS solution containing 0.1% (v/v) Tween-20), the blots were incubated with primary antibodies at 4 °C on a shaker for 16 h. […]

[7] = target: T1, AR (Homo sapiens, UniProt P10275, T878A); experiment: Western blot AR degradation in LNCaP cells; format: cell-based
T1 construct: endogenous in cells; host or cells: LNCaP
T1 sequence (P10275 whole entry T878A): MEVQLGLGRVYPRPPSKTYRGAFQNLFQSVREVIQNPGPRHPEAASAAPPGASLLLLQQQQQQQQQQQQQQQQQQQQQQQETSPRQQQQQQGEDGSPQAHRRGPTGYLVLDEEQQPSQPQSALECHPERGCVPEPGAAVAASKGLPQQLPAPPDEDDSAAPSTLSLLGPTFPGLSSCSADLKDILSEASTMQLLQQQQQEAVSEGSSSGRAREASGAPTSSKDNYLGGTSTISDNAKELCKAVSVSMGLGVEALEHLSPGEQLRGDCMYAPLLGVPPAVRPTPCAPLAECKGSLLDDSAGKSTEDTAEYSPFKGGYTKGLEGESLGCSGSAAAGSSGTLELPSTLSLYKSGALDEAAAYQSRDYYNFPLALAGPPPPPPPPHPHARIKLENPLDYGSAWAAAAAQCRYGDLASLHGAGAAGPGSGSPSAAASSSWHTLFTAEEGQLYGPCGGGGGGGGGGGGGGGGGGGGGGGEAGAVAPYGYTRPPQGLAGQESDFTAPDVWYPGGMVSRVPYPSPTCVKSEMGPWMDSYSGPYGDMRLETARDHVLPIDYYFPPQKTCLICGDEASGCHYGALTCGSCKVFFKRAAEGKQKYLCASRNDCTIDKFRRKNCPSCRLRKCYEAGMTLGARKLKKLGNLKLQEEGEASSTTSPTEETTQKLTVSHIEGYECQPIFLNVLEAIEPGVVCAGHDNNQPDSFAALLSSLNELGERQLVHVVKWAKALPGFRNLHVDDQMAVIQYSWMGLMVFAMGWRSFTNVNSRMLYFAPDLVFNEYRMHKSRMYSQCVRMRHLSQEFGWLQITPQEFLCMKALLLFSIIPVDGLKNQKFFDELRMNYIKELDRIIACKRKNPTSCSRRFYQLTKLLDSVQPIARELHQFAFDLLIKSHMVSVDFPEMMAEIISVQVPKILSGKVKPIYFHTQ
T1 sequence (Q16531 whole entry, further chain): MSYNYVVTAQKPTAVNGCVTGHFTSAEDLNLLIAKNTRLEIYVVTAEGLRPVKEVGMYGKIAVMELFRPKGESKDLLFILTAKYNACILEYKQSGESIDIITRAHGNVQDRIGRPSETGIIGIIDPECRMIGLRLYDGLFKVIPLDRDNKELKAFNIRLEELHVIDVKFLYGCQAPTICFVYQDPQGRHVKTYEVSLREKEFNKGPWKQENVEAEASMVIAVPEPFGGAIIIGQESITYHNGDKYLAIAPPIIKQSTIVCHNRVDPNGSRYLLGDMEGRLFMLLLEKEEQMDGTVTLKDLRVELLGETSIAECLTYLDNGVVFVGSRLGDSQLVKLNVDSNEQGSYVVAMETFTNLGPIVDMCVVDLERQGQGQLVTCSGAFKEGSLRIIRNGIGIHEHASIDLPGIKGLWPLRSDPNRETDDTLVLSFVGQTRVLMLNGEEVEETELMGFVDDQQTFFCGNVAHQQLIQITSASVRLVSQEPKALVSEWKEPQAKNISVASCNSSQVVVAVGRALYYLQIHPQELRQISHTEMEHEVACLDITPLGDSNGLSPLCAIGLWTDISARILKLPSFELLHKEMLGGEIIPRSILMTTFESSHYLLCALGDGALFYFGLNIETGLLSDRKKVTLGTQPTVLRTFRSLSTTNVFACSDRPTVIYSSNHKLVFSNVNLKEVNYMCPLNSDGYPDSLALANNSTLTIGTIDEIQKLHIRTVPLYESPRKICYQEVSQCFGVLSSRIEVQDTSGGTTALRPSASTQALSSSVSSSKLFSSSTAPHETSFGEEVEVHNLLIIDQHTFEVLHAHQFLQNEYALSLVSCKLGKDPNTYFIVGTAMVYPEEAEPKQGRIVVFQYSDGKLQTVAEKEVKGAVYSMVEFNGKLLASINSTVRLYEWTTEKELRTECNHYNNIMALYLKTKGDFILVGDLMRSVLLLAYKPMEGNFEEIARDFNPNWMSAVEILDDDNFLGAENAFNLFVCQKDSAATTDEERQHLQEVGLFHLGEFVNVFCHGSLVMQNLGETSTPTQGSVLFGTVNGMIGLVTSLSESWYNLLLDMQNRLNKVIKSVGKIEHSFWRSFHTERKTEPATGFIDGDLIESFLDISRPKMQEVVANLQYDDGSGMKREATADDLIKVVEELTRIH
T1 sequence (Q96SW2 whole entry, further chain): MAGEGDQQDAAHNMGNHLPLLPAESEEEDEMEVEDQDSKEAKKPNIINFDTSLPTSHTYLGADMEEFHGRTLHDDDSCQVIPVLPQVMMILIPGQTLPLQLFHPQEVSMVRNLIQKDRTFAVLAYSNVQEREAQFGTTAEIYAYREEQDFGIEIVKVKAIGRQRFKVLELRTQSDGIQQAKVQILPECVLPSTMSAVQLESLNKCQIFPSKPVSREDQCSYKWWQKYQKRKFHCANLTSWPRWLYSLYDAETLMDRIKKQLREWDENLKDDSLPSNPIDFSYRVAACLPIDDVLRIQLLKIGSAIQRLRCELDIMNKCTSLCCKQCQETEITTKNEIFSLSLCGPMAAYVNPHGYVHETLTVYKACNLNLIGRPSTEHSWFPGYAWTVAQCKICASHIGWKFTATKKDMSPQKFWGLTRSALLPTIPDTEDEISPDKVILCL
Protocol: as §3
(§4) The pretreated cells were resuspended in lysis buffer containing 50 mM Tris-HCl (pH 8.0), 150 mM NaCl, 1% (v/v) Triton X-100, and protease inhibitors. The protein concentration was determined via a BCA kit (Applygen). Each sample ([…]) was subjected to SDS‒PAGE and then transferred to a PVDF membrane. The blots were blocked in 5% (wt/v) blocking buffer. After washing three times with TBST buffer (10 mM TBS solution containing 0.1% (v/v) Tween-20), the blots were incubated with primary antibodies at 4 °C on a shaker for 16 h. After washing with TBST buffer three times, the blot was incubated with secondary antibodies at room temperature on a shaker for 2 h. After being washed three times with TBST buffer, the blots were subsequently scanned on a Typhoon Trio Variable Mode Imager.

[8] = tested on: HSP90; experiment: HSP90 degradation in LNCaP cells; format: cell-based; details: time-dependent evaluation
Protocol: as §4

[9] = tested on: 22Rv1 xenograft tumor; experiment: Antitumor efficacy in 22Rv1 xenograft mice; format: in vivo, BALB/c nude mice; details: dose study, intravenous every 48 h, five cycles, 20 days

For `CC1(C)C(=O)N(c2ccc(C#N)c(C(F)(F)F)c2)C(=S)N1c1ccc(C(=O)NCCCC[C@H](NC(=O)CNc2cccc3c2C(=O)N(C2CCC(=O)NC2=O)C3=O)C(=O)N[C@@H](CS)C(=O)N[C@@H](CCC(N)=O)C(=O)N[C@@H](Cc2ccc(O)cc2)C(=O)N[C@@H](CC(N)=O)C(=O)N[C@@H](CCC(N)=O)C(=O)N[C@@H](Cc2ccc(O)cc2)C(=O)N[C@@H](Cc2ccc(O)cc2)C(=O)N[C@@H](Cc2ccc3ccccc3c2)C(=O)NCCCC[C@H](NC(=O)N[C@@H](CCC(=O)O)C(=O)O)C(=O)O)c(F)c1` (stereo partly drawn) [Psa-AR] (H-[X1]K(X2)CQYNQYY[2Nal]-EuK), the “selectivity ratio between PSMA^low RWPE-1 and PSMA^high 22Rv1 cells, relative to P-AR” value ([1]; FITC-labeled, 40 µM, 24 h, flow cytometry, n = 3) was 13 fold, the “cellular uptake in RWPE-1 cells” value ([1]; IF, RWPE-1 (PSMA^low) cells) was “low cellular uptake” and the Kd [2] was 0.0072 µM. For the same compound, the IC50 [3] was 11.1 ± 1.4 µM, the “uptake efficiency relative to nonassembling P-AR” value [4] was 5 fold and the IC50 [5] was 10.9 ± 1.1 µM. For the same compound, the “greater AR-V7 degradation than P-AR” value [6] was 66%, the AR degradation rate ([7]; LNCaP cells, time-dependent evaluation) was 97% and the DC50 ([7]; read-out: DC50 for AR protein degradation, LNCaP cell line, 1 to 100 μM) was 11.4 µM. The “superior AR degradation efficiency relative to P-AR” value ([7]; western blot, LNCaP, 20 μM, 48 h) was 49%, the HSP90 degradation rate [8] was 70% and the “mean tumor volume at 10 mg/kg” value [9] was 220 mm^3.

Source: paper PMC12521527, “In vivo self-assembled nano-PROTAC for the dual degradation of AR and HSP90 to overcome castration-resistant prostate cancer resistance” (Signal Transduction and Targeted Therapy, 2025)
